Assay results taken from patent US11834460B2, “Imide-based modulators of proteolysis and associated methods of use” (YALE UNIVERSITY, priority 2018, dated 2023).

Key:
CRBN = CRBN (Homo sapiens, UniProt Q96SW2); assay: Surface plasmon resonance with immobilized His-tagged cereblon; settings: SPR; average of at least 2 experiments; N.B - no binding observed
Procedure: With unprecedented access to novel analogues of ImiDs, the structure-activity relationships with respect to Cereblon binding and the degradation of Aiolos (IKZF3) and CK1αwe were explored. To assess binding of ImiD analogues to Cereblon directly, an SPR assay with His-tagged Cereblon immobilized was employed. Dose-response curves were measured for each analogue and Kd values calculated.
Surface Plasmon Resonance
The surface plasmon resonance (SPR) experiments were conducted on a S200 Biacore (GE Healthcare). His-tagged cereblon protein was immobilized on a carboxymethylated dextran surface with nitriloacetic acid (NTA), taking advantage of NTA/Ni2+ chelation. The prepared surface equilibrated overnight in running buffer (10 mM HEPES buffer @ pH 7.4, 150 mM NaCl, 0.4 mg/mL BSA, 0.005% P20, 2% DMSO).
All compounds were prepared in 100% DMSO stock plates with a top concentration of 5 mM in a 3× serial dilution. Compounds were transferred from the stock plate to the assay plate and diluted into running buffer containing no DMSO.
Data analysis was performed in S200 Bia-evaluation software (GE Healthcare). Blanks were subtracted and data was corrected for DMSO using a standard DMSO curve.

c-Myc = assay: Western blot analysis of c-Myc in BL cell lines; assay type: cell-based; settings: for c-Myc protein level (immunoblot): overnight
Procedure: (§1) Cultured cells were collected in lysis buffer containing 40 mM HEPES (pH 7.4), 140 mM NaCl, 2.5 mM EDTA, 1% NP-40, 0.1% SDS and protease inhibitor cocktail. After 10 minutes of centrifugation (14000 rpm), supernatant was collected for protein concentration determination by BCA method and subjected for immunoblotting by standard protocol. Western blot results were visualized using Bio-Rad Clarity ECL Western Blotting Substrate on Bio-Rad ChemiDoc™ MP imaging system.
A separate set of cells were treated in the same manner, except that DMSO was used in place of the inhibitor. Following treatment, cell lysates were collected and analyzed by immunoblot for c-Myc and Actin.
Cells were re-seeded and incubated without inhibitor for 0 hr, 0.5 hr, 1.0 hr, 2.0 hr, 3.0 hr, 4.0 hr, and 6.0 hr. Cell lysates were then collected at the various time points and analyzed by immunoblot for c-Myc and Actin. In a parallel control experiment, NAMALWA cells were treated in the same manner, except DMSO was used in place of JQ1.
After treatment, the cells were either lysed (to evaluate the suppression of c-Myc by the inhibitors) or washed to remove the inhibitor, re-seeded, and incubated without inhibitor for 4.0 hours (to evaluate the reversibility of c-Myc suppression). Cell lysates were collected and analyzed by immunoblot for c-Myc and Actin.
Following treatment, cell lysates were collected and analyzed by immunoblot for BRD4, c-Myc and Actin.
(§2) Cells were re-seeded in fresh medium and incubated without any compound for 0 hr, 2.0 hr, 4.0 hr, 6.0 hr, and 24.0 hr. In a parallel control experiment, cells were treated in the same manner, except DMSO was used in place of inhibitor. Lysates were collected and analyzed by immunoblot for BRD4, c-Myc, and Actin.

SLC19A1 = assay: RT-QPCR of SLC19A1 gene expression in NAMALWA cells; assay type: cell-based; settings: A825 0.1 μM 24 h, washout, 24 hours post-treatment
Procedure: RNA extraction was performed with Aurum™ Total RNA Mini Kit (#732-6820) from Bio-Rad. First-strand cDNA from total RNA was synthesized with High-Capacity cDNA Reverse Transcription Kit (#4368813) from Life Technologies according to manufacturer's instruction. Quantitative PCR was performed using Bio-rad SsoAdvanced™ Universal SYBR® Green Supermix (#172-5271). The following primers were used: […]
Cells were re-seeded in fresh medium and incubated without any inhibitor for 0 hr, 6.0 hr, and 24.0 hr. In a parallel control experiment, cells were treated in the same manner, except DMSO was used in place of inhibitor. At each time point, RNA was extracted from the lysates, reverse-transcribed into cDNA, and quantified by QPCR with SLC19A1 specific primers. GAPDH was also quantified by QPCR as an internal control.

[1] = tested on: BL cell lines (NAMALWA, Ramos, CA-46, Daudi); assay: Proliferation assay (CellTiter-Glo) in BL cell lines; assay type: cell-based
Procedure: To assess the effect of the inhibitors on proliferation, cells (50,000/100 μl) were seeded in 96-well tissue culture plates followed by addition of compound at the indicated concentration. After 72 hours, 100 μL per well of reconstituted CellTiter-Glo (CTG) reagent (#G7572 from Promega) was added and read on Cytation 3 imaging reader from BioTek. Relative cell growth was determined by comparing assay readings of treated cells with control DMSO treated cells.
Specifically, NAMALWA, Ramos, CA-46, and Daudi cell lines were seeded at 50,000 cells/100 μl in 96-well plates. […] Following treatment, the relative proliferation of the samples was determined by CTG assay 72 hours following treatment.
Cells were re-seeded in fresh medium and incubated without any compound for 0 hr, 24.0 hr, and 48.0 hr. In a parallel control experiment, cells were treated in the same manner, except DMSO was used in place of inhibitor. Following treatment, the relative proliferation of the samples was determined by CTG assay.
In a parallel control experiment, cells were treated in the same manner, except DMSO was used in place of inhibitor. Following treatment, the relative proliferation of the samples was determined by CTG assay.
In a parallel experiment, cells were treated in the same manner, except DMSO was used in place of pomalidomide.

caspase 3/7 = assay: Caspase 3/7-Glow assay in BL cell lines; assay type: cell-based; settings: 24 hours, A825 0.1 μM, JQ1 1.0 μM, OTX015 1.0 μM
PARP = PARP cleavage immunoblot in BL cells; assay type: cell-based; settings: 48 hours; A825 0.1 uM, JQ1 and OTX15 up to 10.0 μM; Ramos cells
Procedure: as §1
Lysates were collected and analyzed by immunoblot for PARP cleavage with actin as loading control.

BRD4 = molecular target: T1, BRD4 (Homo sapiens, UniProt O60885); assay: Western blot analysis of BRD4 in BL cell lines; assay type: cell-based; settings: pomalidomide 10 μM alone; overnight; NAMALWA and Ramos cells
T1 construct: endogenous in cells; host or cells: NAMALWA, Ramos, CA-46, DAUDI
Procedure: as §1
A separate set of cells were treated in the same manner, except that DMSO was used in place of the inhibitor. […] Following treatment, cell lysates were collected and analyzed by immunoblot for BRD4 and Actin.
Specifically, NAMALWA and Ramos cells were treated with 300 nM of each inhibitor for 0 hr, 0.5 hr, 1.0 hr, 2.0 hr, 4.0 hr, 7.0 hr, 24 hr, and 48.0 hr. Following treatment, cell lysates were collected and analyzed by immunoblot for BRD4 and Actin.
(§3) Following treatment, cell lysates were collected and analyzed by immunoblot for BRD4 and Actin.
as §3, §3, §3, §2

[2] = 100 nM to 1000 nM, NAMALWA cells

Sequence of CRBN (Q96SW2 whole entry): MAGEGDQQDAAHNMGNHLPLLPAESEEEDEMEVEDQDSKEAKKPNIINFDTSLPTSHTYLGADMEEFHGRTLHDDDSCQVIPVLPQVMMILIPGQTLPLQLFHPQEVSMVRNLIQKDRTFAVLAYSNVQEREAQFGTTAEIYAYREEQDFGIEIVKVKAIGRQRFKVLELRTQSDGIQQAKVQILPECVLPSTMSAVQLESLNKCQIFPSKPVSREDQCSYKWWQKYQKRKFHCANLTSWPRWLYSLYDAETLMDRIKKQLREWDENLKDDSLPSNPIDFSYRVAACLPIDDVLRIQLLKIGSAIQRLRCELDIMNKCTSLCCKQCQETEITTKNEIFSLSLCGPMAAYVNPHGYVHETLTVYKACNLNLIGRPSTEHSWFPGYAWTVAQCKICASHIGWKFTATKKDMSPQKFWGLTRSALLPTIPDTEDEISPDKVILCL

In the case of `CC(C)(C)c1ccc2c(c1)C(=O)N(C1CCC(=O)NC1=O)C2=O` (centres unmarked) [Compound 11], the Kd (CRBN) is reported as 221 ± 52 nM.

`O=C1CCC(N2C(=O)c3cccc4cccc(c34)C2=O)C(=O)N1` (centres unmarked) [Compound 12] was tested, and the Kd (CRBN) was 111 ± 6 nM.

`O=C1CCC(N2C(=O)c3ccc([N+](=O)[O-])cc3C2=O)C(=O)N1` (centres unmarked) [Compound 16] gave a Kd (CRBN) greater than 11000 nM.

For `Cc1sc2c(c1C)C(c1ccc(Cl)cc1)=N[C@@H](CC(=O)Nc1ccc(OCCOCCOCCOCCNc3cccc4c3C(=O)N(C3CCC(=O)NC3=O)C4=O)cc1)c1nnc(C)n1-2` (some centres unmarked) [Compound A825], the “c-Myc protein level after compound removal” value (c-Myc; A825 0.1 μM 24 h, washout, 24 hours post-treatment, NAMALWA cells) was “well below the control sample”, the “c-Myc downregulation (immunoblot)” value (c-Myc; A825 100-1000 nM overnight, NAMALWA and Ramos cells) was “much more pronounced downregulation of c-Myc compared to JQ1 and OTX-15” and the “SLC19A1 gene expression after compound removal” value (SLC19A1) was “greatly reduced compared to the control sample”. The suppression of proliferation ([1]; 72 hours, all BL cell lines tested) was “more pronounced suppression of proliferation compared to JQ1 or OTX15”, the anti-proliferation effect ([1]; A825 10 nM with 10.0 μM pomalidomide, 72 hours, all cell lines tested) was “prevented the anti-proliferation effect” and the “duration of proliferation suppression post-treatment” value ([1]; A825 0.1 μM 24 h, washout, NAMALWA cells) was “more than 48 hours”. For the same molecule, the “caspase 3/7 activity” value (caspase 3/7) was “statistically significant increase in caspase activity” and the “apoptosis by PARP cleavage” value (PARP) was “prominent PARP cleavage”.

In the case of `Cc1sc2c(c1C)C(c1ccc(Cl)cc1)=N[C@@H](CC(=O)OC(C)(C)C)c1nnc(C)n1-2` [JQ1], the “c-Myc protein level (immunoblot)” value (c-Myc; [2]) is reported as “significant suppression”, the “time for c-Myc protein to return to control level after inhibitor removal” value (c-Myc; 1000 nM 24 h, washout, NAMALWA cells) is reported as no more than 3.0 h and the “c-Myc protein level (immunoblot)” value (c-Myc; up to 3000 nM, NAMALWA cells) is reported as “neither JQ1 nor OTX-15 was able to completely suppress c-Myc expression”. For the same molecule, the “apoptosis by PARP cleavage” value (PARP) was “significantly higher dose”.

For `Cc1sc2c(c1C)C(c1ccc(Cl)cc1)=N[C@@H](CC(=O)Nc1ccc(O)cc1)c1nnc(C)n1-2` [OTX-15], the “c-Myc protein level (immunoblot)” value (c-Myc; [2]) was “significant suppression”, the “c-Myc protein level (immunoblot)” value (c-Myc; up to 3000 nM, NAMALWA cells) was “neither JQ1 nor OTX-15 was able to completely suppress c-Myc expression” and the “apoptosis by PARP cleavage” value (PARP) was “significantly higher dose”.

In the case of `Nc1cccc2c1C(=O)N(C1CCC(=O)NC1=O)C2=O` (centres unmarked) [Pomalidomide, pomalidomide, reference compound], the “BRD4 protein level (immunoblot)” value (BRD4) is reported as “not affected” and the “effect on BL cell proliferation” value ([1]; pomalidomide alone up to 10 μM, 72 hours) is reported as “did not result in a significant effect on the proliferation”.
